The source of these data is US9359377B2, “Substituted imidazo[1,2-a]imidazo[4′,5′:4,5]pyrrolo[1,2-d]pyrazines for treating respiratory syncytial virus infections” (Biota Scientific Management Pty Ltd., priority 2011, dated 2016).

Where only a bound is given, the exact number is not on record here.

The subject of this test is RSV A2. Description: RSV antiviral cytopathic effect (CPE) assay in HEp2 cells, MTT readout. The class given is cell-based, respiratory syncytial virus. The following applies: human respiratory syncytial virus, HEp-2, 120 h; HEp2 cells infected with RSV A2, moi ~0.01, 5 days, inhibition of CPE by 50%; read-out: Activity Range (RSV A2 EC50 mean values). On the procedure:
RSV Antiviral Assay Protocol
Compounds of the invention were tested for their antiviral activity against respiratory syncytial virus. Cytopathic effect (CPE) assays were performed essentially as described in the literature (see, for example, Watanabe et al, 1994, J. Virological Methods, 48:257). Serial dilutions of the test compounds were made in 96 well plates. HEp2 cells (1.0×10^4 cells/well) were infected with RSV at a low multiplicity of infection (e.g. RSV A2 at an moi of ˜0.01) and added to plates to assess antiviral activity. Uninfected HEp2 cells were used to assess compound cytotoxicity. Assays were incubated for 5 days at 37° C. in a 5% CO2 atmosphere. The extent of CPE was determined via metabolism of the vital dye 3-(4,5-dimethylthiaxol-2-yl)-2,5-diphenyltetrazolium bromide (MTT). MTT (1 mg/ml) was added to each well and plates incubated for 2 hours incubation at 37° C. Wells were aspirated, iso-propanol (200 μL) was added and absorbance values read at 540/650 nm. Compound concentrations that inhibited CPE by 50% (EC50) and developed cytotoxicity (CC50) were calculated using non-linear regression analysis.
In the inventors' experience, replicate EC50 values usually fall within three standard deviations of the mean.
A general note: Damage to the host cells serves as the signal in cytopathic effect assays.

Take `COc1ccc(C23Cn4c(cc5[nH]c(C)nc54)C(=O)N2CCN3C(=O)c2conc2C)cc1` (stereo not shown) [Compound 2, 5a-(4-methoxyphenyl)-2-methyl-6-[(3-methyl-1,2-oxazol-4-yl)carbonyl]-5a,6,7,8-tetrahydro-5H-imidazo[1,2-a]imidazo[4′,5′:4,5]pyrrolo[1,2-d]pyrazin-10(1H)-one]: the EC50 (in general, the concentration needed to bring the measured effect to its halfway point) is no more than 49 nM.
